The numbers were not newly measured in patent US20220378840A1, “COMPOSITIONS, KITS AND METHODS FOR STORAGE OF BLOOD PRODUCTS AND METHODS OF USE THEREOF” (Rutgers, The State University of New Jersey, priority 2019, published 2022), which cites them from elsewhere.

In series [1] the test system is RBCs. To be noted: prolonged incubation in 3% L-carnitine.
The test system of series [2] is RBCs. To be noted: 6% concentration L-carnitine.
Series [3] has as its system hemorrhagic shock. Particulars: 6% concentration HES.
Series [4] concerns cells. To be noted: 6% concentration HES.

As for `C[N+](C)(C)C[C@H](O)CC(=O)[O-]` [L-carnitine], in series [1], the “toxicity on prolonged incubation” value was “non-toxic”. Besides, in series [2], the “recovery of RBCs” value is 80%.
Turning to Hydroxyethyl starch [HES], the “oxidative stress and inflammatory response in hemorrhagic shock” value in series [3] was “reduces oxidative stress and inflammatory response”. Further, the “cell survival during freezing and thawing” value in series [4] is “improves cell survival”.
